According to PMC6934184, “Selective DNA-PKcs inhibition extends the therapeutic index of localized radiotherapy and chemotherapy” (The Journal of Clinical Investigation, 2019):

Target: T1, BMX (Homo sapiens, UniProt P51813)
T1 construct: purchased Thermo Fisher Scientific (Life Technologies) SelectScreen
Assay: SelectScreen Z'LYTE
Type: biochemical
How it was run: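 Compound tested in SelectScreen activity assays, Z'LYTE for CSF1R, CDK1/cyclin B and MAP2K6 and Adapta for CAMK1. ATP for CAMK1 was listed as 10, and Km app was used for CSF1R. Results are expressed in percent.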

T1 sequence (P51813 whole entry): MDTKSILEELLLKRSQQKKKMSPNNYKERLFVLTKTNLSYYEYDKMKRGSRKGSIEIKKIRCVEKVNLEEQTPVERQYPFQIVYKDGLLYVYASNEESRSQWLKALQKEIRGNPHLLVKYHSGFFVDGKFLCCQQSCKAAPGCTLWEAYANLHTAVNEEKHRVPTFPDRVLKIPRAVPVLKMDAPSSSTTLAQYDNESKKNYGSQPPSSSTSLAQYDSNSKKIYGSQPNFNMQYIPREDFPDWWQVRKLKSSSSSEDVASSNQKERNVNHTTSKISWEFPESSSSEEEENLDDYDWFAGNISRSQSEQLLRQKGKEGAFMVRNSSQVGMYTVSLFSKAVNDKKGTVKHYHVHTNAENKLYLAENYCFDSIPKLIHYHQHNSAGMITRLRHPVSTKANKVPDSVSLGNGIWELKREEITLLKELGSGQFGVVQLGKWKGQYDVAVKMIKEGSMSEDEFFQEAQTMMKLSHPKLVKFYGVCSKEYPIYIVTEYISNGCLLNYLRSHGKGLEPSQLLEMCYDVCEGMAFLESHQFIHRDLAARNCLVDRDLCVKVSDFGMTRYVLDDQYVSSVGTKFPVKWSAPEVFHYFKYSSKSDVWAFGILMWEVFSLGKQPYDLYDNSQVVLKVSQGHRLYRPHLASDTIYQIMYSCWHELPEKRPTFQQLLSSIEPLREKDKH

CN(C(=O)CN1CCOCC1)c1ccc2sc3c(-c4cccc5c(=O)cc(N6CC7CCC(C6)O7)oc45)cccc3c2c1 [NU5455]
inhibition at 1 µM: 4.4%
